EC50 data for 28 compounds are collected here from patent US9382254B2, “Compounds and pharmaceutical compositions thereof for the treatment of cystic fibrosis” (Galapagos NV, priority 2013, dated 2016).

By EC50 is commonly meant the concentration that produces a half-maximal response.

Each structure is given as a SMILES string.

The target in this experiment is T1, CFTR ΔF508 mutant (Homo sapiens, UniProt P13569, DEL508-508).
T1 construct: expressed in transfected cells; host or cells: CFBE41o- (adenoviral transduction)
T1 sequence (P13569 with tags, fused parts or gaps DEL508-508): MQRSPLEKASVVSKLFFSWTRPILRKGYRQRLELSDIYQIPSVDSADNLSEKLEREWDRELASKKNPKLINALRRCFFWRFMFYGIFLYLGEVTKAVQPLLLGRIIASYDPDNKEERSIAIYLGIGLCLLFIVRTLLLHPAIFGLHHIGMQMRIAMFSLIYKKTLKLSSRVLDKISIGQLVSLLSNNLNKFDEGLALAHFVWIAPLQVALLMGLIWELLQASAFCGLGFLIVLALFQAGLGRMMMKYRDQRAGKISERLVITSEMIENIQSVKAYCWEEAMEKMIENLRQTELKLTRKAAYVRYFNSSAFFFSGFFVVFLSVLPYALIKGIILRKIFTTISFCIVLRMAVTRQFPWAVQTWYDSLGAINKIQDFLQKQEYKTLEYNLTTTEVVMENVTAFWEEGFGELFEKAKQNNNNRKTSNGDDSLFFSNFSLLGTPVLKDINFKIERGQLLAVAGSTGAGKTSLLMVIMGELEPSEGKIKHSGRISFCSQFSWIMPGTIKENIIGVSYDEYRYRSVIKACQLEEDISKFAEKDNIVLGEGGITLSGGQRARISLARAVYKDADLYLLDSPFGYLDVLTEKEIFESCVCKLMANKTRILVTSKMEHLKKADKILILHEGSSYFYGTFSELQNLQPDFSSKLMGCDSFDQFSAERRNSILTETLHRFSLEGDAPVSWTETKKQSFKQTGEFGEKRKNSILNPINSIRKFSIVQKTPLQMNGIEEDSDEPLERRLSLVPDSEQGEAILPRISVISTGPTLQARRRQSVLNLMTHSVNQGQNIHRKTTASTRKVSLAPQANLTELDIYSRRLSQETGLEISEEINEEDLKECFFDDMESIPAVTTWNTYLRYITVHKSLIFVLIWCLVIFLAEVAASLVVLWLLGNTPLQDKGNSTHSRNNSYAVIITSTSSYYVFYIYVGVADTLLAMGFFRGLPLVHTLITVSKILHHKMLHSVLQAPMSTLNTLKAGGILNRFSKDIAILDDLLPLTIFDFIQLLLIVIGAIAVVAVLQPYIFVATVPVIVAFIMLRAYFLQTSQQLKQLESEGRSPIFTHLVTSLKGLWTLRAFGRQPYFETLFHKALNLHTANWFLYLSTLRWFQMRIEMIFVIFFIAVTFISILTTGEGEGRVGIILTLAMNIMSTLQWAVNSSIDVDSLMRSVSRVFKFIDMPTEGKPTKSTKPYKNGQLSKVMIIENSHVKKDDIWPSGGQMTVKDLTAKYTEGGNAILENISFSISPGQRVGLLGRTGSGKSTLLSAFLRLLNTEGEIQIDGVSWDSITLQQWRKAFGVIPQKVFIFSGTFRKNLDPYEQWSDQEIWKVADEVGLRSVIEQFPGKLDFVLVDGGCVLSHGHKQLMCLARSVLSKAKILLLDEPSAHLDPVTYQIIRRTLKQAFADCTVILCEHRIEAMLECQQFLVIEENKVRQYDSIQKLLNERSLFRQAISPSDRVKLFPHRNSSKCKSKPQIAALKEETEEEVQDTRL
Nature of the experiment: YFP-halide influx assay for the CFTR-ΔF508 mutation, gluconate buffer. The class given is cell-based. The conditions noted are these: CFBE41o- cells, forskolin 10.67 μM. An outline of the steps: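 Channel opening is read as the fall in YFP fluorescence over 7 s following iodide injection, expressed as 1-F/F0 and plotted versus compound concentration to derive EC50. Cells used were CFBE41o- expressing adenoviral ΔF508 CFTR and halide-sensitive YFP, rescued by 24 h at 27 °C or 24 h modulator treatment at 37 °C.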

With `COc1cc(Nc2ccccc2)ccc1C(=O)Nc1sc(S(=O)(=O)N2CCOCC2)cc1C(N)=O` [Compound 70, 2-(2-methoxy-4-(phenylamino)benzamido)-5-(morpholinosulfonyl) thiophene-3-carboxamide], the EC50 stood at 0.921 µM. Take `CN(Cc1ccccc1)S(=O)(=O)c1cc(C(N)=O)c(NC(=O)C2(c3ccc4c(c3)OC(F)(F)O4)CC2)s1` [Compound 71, 5-(N-benzyl-N-methylsulfamoyl)-2-(1-(2,2-difluorobenzo[d][1,3]dioxol-5-yl)cyclopropanecarboxamido) thiophene-3-carboxamide]: the EC50 is 0.797 µM. Consider `CN(Cc1ccccc1)S(=O)(=O)c1cc(C(N)=O)c(NC(=O)c2ccccc2F)s1` [Compound 72, 5-(N-benzyl-N-methylsulfamoyl)-2-(2-fluorobenzamido) thiophene-3-carboxamide], for which it took 0.326 µM to reach a half-maximal effect (EC50).

In the case of `CN(C)S(=O)(=O)c1cc(C(N)=O)c(NC(=O)c2ccccc2F)s1` [Compound 74, 5-(N,N-dimethylsulfamoyl)-2-(2-fluorobenzamido) thiophene-3-carboxamide], it took 0.135 µM to reach a half-maximal effect (EC50). This EC50 lies about 2.4-fold lower than the previous one. In the case of `CN(C)S(=O)(=O)c1cc(C(N)=O)c(NC(=O)c2cc[nH]n2)s1` [Compound 75, N-(3-carbamoyl-5-(N,N-dimethylsulfamoyl)thiophen-2-yl)-1H-pyrazole-3-carboxamide], the EC50 stood at 0.418 µM. Compound `NC(=O)c1cc(S(=O)(=O)N2CCOCC2)sc1NC(=O)c1cscn1` [Compound 76, N-(3-carbamoyl-5-(morpholinosulfonyl)thiophen-2-yl)thiazole-4-carboxamide] registered an EC50 of 0.621 µM. The EC50 values of the last two compounds are within 1.5-fold of each other. Compound `NC(=O)c1cc(S(=O)(=O)N2CCOCC2)sc1NC(=O)c1ncccc1F` [Compound 77, N-(3-carbamoyl-5-(morpholinosulfonyl)thiophen-2-yl)-3-fluoropicolinamide] returned an EC50 of 3.33 µM. `NC(=O)c1cc(S(=O)(=O)N2CCOCC2)sc1NC(=O)c1cccnn1` [Compound 79, N-(3-carbamoyl-5-(morpholinosulfonyl)thiophen-2-yl) pyridazine-3-carboxamide] returned an EC50 of over 1 µM.

Consider `NC(=O)c1cc(S(=O)(=O)N2CCOCC2)sc1NC(=O)c1ccnnc1` [Compound 80, N-(3-carbamoyl-5-(morpholinosulfonyl)thiophen-2-yl)pyridazine-4-carboxamide], for which the EC50 is over 1 µM. Consider `NC(=O)c1cc(S(=O)(=O)N2CCOCC2)sc1NC(=O)c1ncccn1` [Compound 81, N-(3-carbamoyl-5-(morpholinosulfonyl)thiophen-2-yl) pyrimidine-2-carboxamide], for which the EC50 is over 1 µM.

Take `Cc1ccc(C(=O)Nc2sc(S(=O)(=O)Cc3ccccc3)cc2C(N)=O)s1` [Compound 82, N-(5-(benzylsulfonyl)-3-carbamoylthiophen-2-yl)-5-methylthiophene-2-carboxamide]: the EC50 was 0.468 µM. This lies in the sub-micromolar range. The same measure for `Cc1ccc(C(=O)Nc2sc(S(=O)(=O)C3CCOCC3)cc2C(N)=O)s1` [Compound 84, N-(3-carbamoyl-5-(tetrahydro-2H-pyran-4-ylsulfonyl)thiophen-2-yl)-5-methylthiophene-2-carboxamide]: 3.19 µM; for `Cc1c(S(=O)(=O)N2CCOCC2)sc(NC(=O)c2ccccc2F)c1C(N)=O` [Compound 85, 2-(2-fluorobenzamido)-4-methyl-5-(morpholinosulfonyl) thiophene-3-carboxamide]: 0.114 µM; for `Cc1ccc(C(=O)Nc2sc(S(=O)(=O)c3ccccc3)c(C)c2C(N)=O)s1` [Compound 86, N-(3-carbamoyl-4-methyl-5-(phenylsulfonyl)thiophen-2-yl)-5-methylthiophene-2-carboxamide]: 0.138 µM.

Turning to `CN(Cc1ccccc1)S(=O)(=O)c1cc(C(N)=O)c(NC(=O)C(C)(C)C)s1` [Compound 88, 5-(N-benzyl-N-methylsulfamoyl)-2-pivalamidothiophene-3-carboxamide], the EC50 came out at 0.162 µM. `Cc1ccc(C(=O)Nc2sc(S(=O)(=O)c3ccccn3)cc2C(N)=O)s1` [Compound 89, N-(3-carbamoyl-5-(pyridin-2-ylsulfonyl)thiophen-2-yl)-5-methylthiophene-2-carboxamide] gave an EC50 of 0.378 µM.

`Cc1c(S(=O)(=O)N2CCOCC2)sc(NC(=O)c2cc[nH]n2)c1C(N)=O` [Compound 90, N-(3-carbamoyl-4-methyl-5-(morpholinosulfonyl)thiophen-2-yl)-1H-pyrazole-3-carboxamide] had an EC50 of 0.261 µM. `NC(=O)c1cc(S(=O)(=O)N2CCOCC2)sc1NC(=O)c1ccccn1` [Compound 91, N-(3-carbamoyl-5-(morpholinosulfonyl)thiophen-2-yl) picolinamide] returned an EC50 of 1.53 µM. Against the preceding compound, the EC50 is about 5.9-fold higher. Take `Cc1c(S(=O)(=O)N2CCOCC2)sc(NC(=O)C(C)(C)C)c1C(N)=O` [Compound 92, 4-methyl-5-(morpholinosulfonyl)-2-pivalamidothiophene-3-carboxamide]: it took 0.953 µM to reach a half-maximal effect (EC50). In the case of `NC(=O)c1cc(S(=O)(=O)N2CCOCC2)sc1NC(=O)c1nccs1` [Compound 93, N-(3-carbamoyl-5-(morpholinosulfonyl)thiophen-2-yl)thiazole-2-carboxamide], the midpoint of the response, the EC50, lay at 3.33 µM. In turn, `NC(=O)c1cc(S(=O)(=O)N2CCOCC2)sc1NC(=O)c1cocn1` [Compound 94, N-(3-carbamoyl-5-(morpholinosulfonyl)thiophen-2-yl) oxazole-4-carboxamide] returned an EC50 of 3.33 µM.

`CC(C)(C)c1cc(C(=O)Nc2sc(S(=O)(=O)c3ccccc3)cc2C(N)=O)n[nH]1` [Compound 96, 5-tert-butyl-N-(3-carbamoyl-5-(phenylsulfonyl)thiophen-2-yl)-1H-pyrazole-3-carboxamide] returned an EC50 of 0.253 µM.

Turning to `NC(=O)c1cc(S(=O)(=O)N2CCOCC2)sc1NC(=O)c1ccc[nH]1` [Compound 97, N-(3-carbamoyl-5-(morpholinosulfonyl)thiophen-2-yl)-1H-pyrrole-2-carboxamide], the EC50 was over 1 µM. Regarding `NC(=O)c1cc(S(=O)(=O)N2CCOCC2)sc1NC(=O)c1ncco1` [Compound 98, N-(3-carbamoyl-5-(morpholinosulfonyl)thiophen-2-yl)oxazole-2-carboxamide], the EC50 was over 1 µM. `NC(=O)c1cc(S(=O)(=O)N2CCOCC2)sc1NC(=O)c1ccco1` [Compound 99, N-(3-carbamoyl-5-(morpholinosulfonyl)thiophen-2-yl)furan-2-carboxamide]: the EC50 came out at 1.94 µM. This counts as single-digit micromolar. Consider `NC(=O)c1cc(S(=O)(=O)c2ccccc2)sc1NC(=O)c1ccccc1F` [Compound 100, 2-(2-fluorobenzamido)-5-(phenylsulfonyl) thiophene-3-carboxamide], for which the EC50 was found to be 0.121 µM. Compared with the last compound, the EC50 is about 16-fold lower.

As to `NC(=O)c1cc(S(=O)(=O)N2CCOCC2)sc1NC(=O)c1cc(C(F)(F)F)[nH]n1` [Compound 102, N-(3-carbamoyl-5-(morpholinosulfonyl)thiophen-2-yl)-5-(trifluoromethyl)-1H-pyrazole-3-carboxamide], the midpoint of the response, the EC50, lay at 0.215 µM.

`Cc1c(S(=O)(=O)c2ccccc2)sc(NC(=O)c2ccccc2C(F)(F)F)c1C(N)=O` [Compound 104, 4-methyl-5-(phenylsulfonyl)-2-(2-(trifluoromethyl)benzamido)thiophene-3-carboxamide] had a 50% effective concentration (EC50) of 0.37 µM.
